“And” between values parts separate entries of the source, which are not always exact repeats. Equal entries are not always repeated. Toxic doses and inconclusive results are not listed.
Test system: B6C3F1 mice, ip Sarcoma M5076, median survival T/C
Assay: NCI In Vivo Anticancer Drug Screen. Data for tumor model Sarcoma M5076 (intraperitoneal) in B6C3F1 mice
Details: endpoint: median survival time, schedule: Q04DX004 (ip), higher = longer survival
How it was run: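 Tumour cells were transplanted into mice, compound or vehicle was given, survival of both groups was followed, and the treated figure was expressed over the control figure.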

[1] = dose: 50.0 mg/kg/injection, vehicle: saline

Cc1c2ccccc2cc2cccc[n+]12
T/C (dose: 10.0 mg/kg/injection, vehicle: saline): 100 % of control
T/C (dose: 20.0 mg/kg/injection, vehicle: saline): 96 % of control
T/C (dose: 40.0 mg/kg/injection, vehicle: saline): 96 % of control

Cn1c(-c2ccc(/C=N\N3CCN(/N=C/c4ccc(-c5c[n+]6ccsc6n5C)cc4)CC3)cc2)c[n+]2ccsc12
T/C (dose: 1.5 mg/kg/injection, vehicle: saline with Tween-80): 109 % of control
T/C (dose: 3.0 mg/kg/injection, vehicle: saline with Tween-80): 104 % of control
T/C (dose: 6.0 mg/kg/injection, vehicle: saline with Tween-80): 101 % of control

Clc1ccccc1C(Nc1cnccn1)Nc1cnccn1
T/C (dose: 50.0 mg/kg/injection, vehicle: saline with Tween-80): 105 % of control and 112 % of control
T/C (dose: 100.0 mg/kg/injection, vehicle: saline with Tween-80): 105 % of control
T/C (dose: 200.0 mg/kg/injection, vehicle: saline with Tween-80): 103 % of control and 109 % of control
T/C (dose: 400.0 mg/kg/injection, vehicle: saline with Tween-80): 110 % of control and 114 % of control
T/C (dose: 800.0 mg/kg/injection, vehicle: saline with Tween-80): 100 % of control

CC(C)N1C(=O)N(Cl)C2C1N(Cl)C(=O)N2Cl (centres undefined)
T/C (dose: 6.25 mg/kg/injection, vehicle: sodium bicarbonate): 102 % of control
T/C (dose: 12.5 mg/kg/injection, vehicle: sodium bicarbonate): 107 % of control
T/C (dose: 25.0 mg/kg/injection, vehicle: sodium bicarbonate): 94 % of control
T/C [1]: 91 % of control
T/C (dose: 50.0 mg/kg/injection, vehicle: sodium bicarbonate): 114 % of control
T/C (dose: 100.0 mg/kg/injection, vehicle: sodium bicarbonate): 109 % of control

COc1cc2c(c(OC)c1OC)-c1cccc(=O)cc1C(NC(C)=O)CC2 (centres undefined)
T/C (dose: 3.15 mg/kg/injection, vehicle: Klucel (hydroxypropylcellulose) (HPC)): 98 % of control
T/C (dose: 6.25 mg/kg/injection, vehicle: Klucel (hydroxypropylcellulose) (HPC)): 113 % of control
T/C (dose: 12.5 mg/kg/injection, vehicle: Klucel (hydroxypropylcellulose) (HPC)): 107 % of control
T/C (dose: 25.0 mg/kg/injection, vehicle: Klucel (hydroxypropylcellulose) (HPC)): 116 % of control and 117 % of control
T/C (dose: 36.0 mg/kg/injection, vehicle: Klucel (hydroxypropylcellulose) (HPC)): 114 % of control
T/C (dose: 50.0 mg/kg/injection, vehicle: Klucel (hydroxypropylcellulose) (HPC)): 115 % of control
T/C (dose: 60.0 mg/kg/injection, vehicle: Klucel (hydroxypropylcellulose) (HPC)): 113 % of control
T/C (dose: 100.0 mg/kg/injection, vehicle: Klucel (hydroxypropylcellulose) (HPC)): 110 % of control and 121 % of control
T/C (dose: 166.67 mg/kg/injection, vehicle: Klucel (hydroxypropylcellulose) (HPC)): 107 % of control
T/C (dose: 277.78 mg/kg/injection, vehicle: Klucel (hydroxypropylcellulose) (HPC)): 111 % of control

CO[C@@]12[C@@H]3N[C@@H]3CN1C1=C(C(=O)C(N3CCCC3)=C(C)C1=O)[C@@H]2COC(N)=O
T/C (dose: 6.25 mg/kg/injection, vehicle: saline with Tween-80): 269 % of control
T/C (dose: 12.5 mg/kg/injection, vehicle: saline with Tween-80): 183 % of control

Oc1cccc2ccccc12
T/C (dose: 25.0 mg/kg/injection, vehicle: water): 100 % of control
T/C (dose: 50.0 mg/kg/injection, vehicle: water): 105 % of control
T/C (dose: 100.0 mg/kg/injection, vehicle: water): 98 % of control

CC(C)(O)/C=C/C(=O)[C@](C)(O)[C@H]1[C@H](O)C[C@@]2(C)[C@@H]3CC=C4[C@@H](C=C(O)C(=O)C4(C)C)[C@]3(C)C(=O)C[C@]12C
T/C (dose: 0.5 mg/kg/injection, vehicle: water): 111 % of control
T/C (dose: 1.0 mg/kg/injection, vehicle: water): 117 % of control
T/C (dose: 1.67 mg/kg/injection, vehicle: water): 113 % of control

CCN(CC)CCn1c2c(c3ccc(OC)cc31)CCN1CC3CC(OC(=O)c4cc(OC)c(OC)c(OC)c4)C(OC)C(C(=O)OC)C3CC21 (centres undefined)
T/C (dose: 25.0 mg/kg/injection, vehicle: saline): 105 % of control
T/C [1]: 97 % of control
T/C (dose: 100.0 mg/kg/injection, vehicle: saline): 97 % of control
T/C (dose: 200.0 mg/kg/injection, vehicle: saline): 86 % of control
